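Method: 48-hour compound exposure of cells in 96-well plates, five concentrations, linear interpolation of endpoints. The concentration for full growth arrest is given as TGI.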
Key:
Assay in all cases: NCI-60 cell line screen, 48 h
786-0 renal = system: 786-0 renal
A498 renal = system: A498 renal
A549 NSCLC = system: A549 NSCLC
ACHN renal = system: ACHN renal
BT-549 breast = system: BT-549 breast
CAKI-1 renal = system: CAKI-1 renal
CCRF-CEM leukemia = system: CCRF-CEM leukemia
COLO 205 colon = system: COLO 205 colon
DU-145 prostate = system: DU-145 prostate
EKVX NSCLC = system: EKVX NSCLC
HCT-116 colon = system: HCT-116 colon
HCT-15 colon = system: HCT-15 colon
HL-60(TB) leukemia = system: HL-60(TB) leukemia
HOP-62 NSCLC = system: HOP-62 NSCLC
HOP-92 NSCLC = system: HOP-92 NSCLC
HS 578T breast = system: HS 578T breast
HT29 colon = system: HT29 colon
IGROV1 ovarian = system: IGROV1 ovarian
KM12 colon = system: KM12 colon
LOX IMVI melanoma = system: LOX IMVI melanoma
M14 melanoma = system: M14 melanoma
MALME-3M melanoma = system: MALME-3M melanoma
MCF7 breast = system: MCF7 breast
MDA-MB-231 breast = system: MDA-MB-231 breast
MDA-MB-435 = system: MDA-MB-435
MDA-N = system: MDA-N
NCI-H226 lung = system: NCI-H226 lung
NCI-H23 lung = system: NCI-H23 lung
NCI-H460 lung = system: NCI-H460 lung
NCI-H522 lung = system: NCI-H522 lung
NCI/ADR-RES ovarian = system: NCI/ADR-RES ovarian
OVCAR-3 ovarian = system: OVCAR-3 ovarian
OVCAR-4 ovarian = system: OVCAR-4 ovarian
OVCAR-5 ovarian = system: OVCAR-5 ovarian
OVCAR-8 ovarian = system: OVCAR-8 ovarian
PC-3 prostate = system: PC-3 prostate
RPMI-8226 leukemia = system: RPMI-8226 leukemia
RXF 393 renal = system: RXF 393 renal
SF-268 CNS = system: SF-268 CNS
SF-295 CNS = system: SF-295 CNS
SF-539 CNS = system: SF-539 CNS
SK-MEL-2 melanoma = system: SK-MEL-2 melanoma
SK-MEL-28 melanoma = system: SK-MEL-28 melanoma
SK-MEL-5 melanoma = system: SK-MEL-5 melanoma
SK-OV-3 ovarian = system: SK-OV-3 ovarian
SN12C renal = system: SN12C renal
SNB-19 CNS = system: SNB-19 CNS
SNB-75 CNS = system: SNB-75 CNS
SW-620 colon = system: SW-620 colon
T-47D breast = system: T-47D breast
TK-10 renal = system: TK-10 renal
U251 CNS = system: U251 CNS
UACC-257 melanoma = system: UACC-257 melanoma
UACC-62 melanoma = system: UACC-62 melanoma
UO-31 renal = system: UO-31 renal
HCC-2998 colon = system: HCC-2998 colon
K-562 leukemia = system: K-562 leukemia
MOLT-4 leukemia = system: MOLT-4 leukemia
SR leukemia = system: SR leukemia

`O=C(O)C(O)C(O)C(O)C(O)c1nc2ccccc2s1` (stereo not drawn) showed a TGI (786-0 renal) of 30.4 µM, a TGI (A498 renal) of 63.7 µM and a TGI (A549 NSCLC) of 39.3 µM. It also gave a TGI (ACHN renal) of 33.2 µM, a TGI (BT-549 breast) of 63.2 µM and a TGI (CAKI-1 renal) of 33.5 µM. For the same molecule, the TGI (CCRF-CEM leukemia) was > 100 µM, the TGI (COLO 205 colon) was > 100 µM and the TGI (DU-145 prostate) was 31.2 µM. The TGI (EKVX NSCLC) was 35.8 µM, the TGI (HCT-116 colon) was 30.1 µM and the TGI (HCT-15 colon) was 82.9 µM. It also gave a TGI (HL-60(TB) leukemia) of 46 µM, a TGI (HOP-62 NSCLC) of 33.5 µM and a TGI (HOP-92 NSCLC) of 40.1 µM. The TGI (HS 578T breast) was 60.2 µM, the TGI (HT29 colon) was 41.9 µM and the TGI (IGROV1 ovarian) was 24.7 µM. It also gave a TGI (KM12 colon) of 71.1 µM, a TGI (LOX IMVI melanoma) of 36.7 µM and a TGI (M14 melanoma) of 45.7 µM. For the same molecule, the TGI (MALME-3M melanoma) was 36.7 µM, the TGI (MCF7 breast) was 33.1 µM and the TGI (MDA-MB-231 breast) was 31.9 µM. For the same molecule, the TGI (MDA-MB-435) was 31.8 µM, the TGI (MDA-N) was 33.2 µM and the TGI (NCI-H226 lung) was 66.4 µM. For the same molecule, the TGI (NCI-H23 lung) was 66.1 µM, the TGI (NCI-H460 lung) was 31.6 µM and the TGI (NCI-H522 lung) was 27.1 µM. The TGI (NCI/ADR-RES ovarian) was > 100 µM, the TGI (OVCAR-3 ovarian) was 31.4 µM and the TGI (OVCAR-4 ovarian) was 50.2 µM. For the same molecule, the TGI (OVCAR-5 ovarian) was 72.9 µM, the TGI (OVCAR-8 ovarian) was 37.4 µM and the TGI (PC-3 prostate) was 30 µM. For the same molecule, the TGI (RPMI-8226 leukemia) was 68.8 µM, the TGI (RXF 393 renal) was 32.6 µM and the TGI (SF-268 CNS) was 29 µM. The TGI (SF-295 CNS) was 31.9 µM, the TGI (SF-539 CNS) was 34.1 µM and the TGI (SK-MEL-2 melanoma) was 36.5 µM. It also gave a TGI (SK-MEL-28 melanoma) of 38 µM, a TGI (SK-MEL-5 melanoma) of 74.1 µM and a TGI (SK-OV-3 ovarian) of 34.4 µM. For the same molecule, the TGI (SN12C renal) was 34.8 µM, the TGI (SNB-19 CNS) was 49.8 µM and the TGI (SNB-75 CNS) was 34.7 µM. The TGI (SW-620 colon) was 54.7 µM, the TGI (T-47D breast) was 52.7 µM and the TGI (TK-10 renal) was 29.3 µM. It also gave a TGI (U251 CNS) of 29.5 µM, a TGI (UACC-257 melanoma) of 30.9 µM and a TGI (UACC-62 melanoma) of 28.8 µM. It also gave a TGI (UO-31 renal) of 30.1 µM.
For `CC1(C)C(C#N)C1C1=C(N2CCOCC2)[C@]2(C)C(OC(=O)c3ccccc3)CC[C@@H]2C1` (stereo partly drawn), the TGI (786-0 renal) was > 100 µM, the TGI (A498 renal) was > 100 µM and the TGI (A549 NSCLC) was > 100 µM. For the same molecule, the TGI (ACHN renal) was > 100 µM, the TGI (BT-549 breast) was > 100 µM and the TGI (CAKI-1 renal) was > 100 µM. The TGI (CCRF-CEM leukemia) was > 100 µM, the TGI (COLO 205 colon) was > 100 µM and the TGI (EKVX NSCLC) was > 100 µM. For the same molecule, the TGI (HCC-2998 colon) was > 100 µM, the TGI (HCT-116 colon) was > 100 µM and the TGI (HCT-15 colon) was > 100 µM. For the same molecule, the TGI (HOP-62 NSCLC) was > 100 µM, the TGI (HOP-92 NSCLC) was > 100 µM and the TGI (HS 578T breast) was > 100 µM. For the same molecule, the TGI (HT29 colon) was > 100 µM, the TGI (IGROV1 ovarian) was > 100 µM and the TGI (K-562 leukemia) was > 100 µM. The TGI (KM12 colon) was > 100 µM, the TGI (M14 melanoma) was > 100 µM and the TGI (MALME-3M melanoma) was > 100 µM. For the same molecule, the TGI (MCF7 breast) was > 100 µM, the TGI (MDA-MB-231 breast) was > 100 µM and the TGI (MDA-MB-435) was > 100 µM. For the same molecule, the TGI (MDA-N) was > 100 µM, the TGI (MOLT-4 leukemia) was > 100 µM and the TGI (NCI-H226 lung) was > 100 µM. For the same molecule, the TGI (NCI-H23 lung) was > 100 µM, the TGI (NCI-H460 lung) was > 100 µM and the TGI (NCI-H522 lung) was > 100 µM. For the same molecule, the TGI (NCI/ADR-RES ovarian) was > 100 µM, the TGI (OVCAR-3 ovarian) was > 100 µM and the TGI (OVCAR-4 ovarian) was > 100 µM. For the same molecule, the TGI (OVCAR-5 ovarian) was > 100 µM, the TGI (OVCAR-8 ovarian) was > 100 µM and the TGI (PC-3 prostate) was > 100 µM. For the same molecule, the TGI (RXF 393 renal) was > 100 µM, the TGI (SF-268 CNS) was > 100 µM and the TGI (SF-295 CNS) was > 100 µM. For the same molecule, the TGI (SF-539 CNS) was > 100 µM, the TGI (SK-MEL-28 melanoma) was > 100 µM and the TGI (SK-MEL-5 melanoma) was > 100 µM. The TGI (SK-OV-3 ovarian) was > 100 µM, the TGI (SN12C renal) was > 100 µM and the TGI (SNB-19 CNS) was > 100 µM. For the same molecule, the TGI (SNB-75 CNS) was > 100 µM, the TGI (SR leukemia) was > 100 µM and the TGI (SW-620 colon) was > 100 µM. For the same molecule, the TGI (T-47D breast) was > 100 µM, the TGI (TK-10 renal) was > 100 µM and the TGI (U251 CNS) was > 100 µM. The TGI (UACC-257 melanoma) was > 100 µM, the TGI (UACC-62 melanoma) was > 100 µM and the TGI (UO-31 renal) was > 100 µM.
`C[C@H]1[C@H]2[C@H]3CC[C@@H]4[C@@]5(C)CC[C@H](O)C(C)(C)[C@@H]5CC[C@@]4(C)[C@]3(C)C[C@H](O)[C@@]2(C)C[C@H]2O[C@]21C` gave a TGI (786-0 renal) of 45.1 µM, a TGI (A498 renal) of 38.7 µM and a TGI (A549 NSCLC) of 41.7 µM. The TGI (ACHN renal) was 31.1 µM, the TGI (BT-549 breast) was 41.5 µM and the TGI (CAKI-1 renal) was 69.8 µM. The TGI (CCRF-CEM leukemia) was > 100 µM, the TGI (COLO 205 colon) was 58.7 µM and the TGI (DU-145 prostate) was 31.5 µM. For the same molecule, the TGI (EKVX NSCLC) was 73.9 µM, the TGI (HCC-2998 colon) was 37.4 µM and the TGI (HCT-116 colon) was 36.3 µM. For the same molecule, the TGI (HCT-15 colon) was 54.8 µM, the TGI (HL-60(TB) leukemia) was > 100 µM and the TGI (HOP-62 NSCLC) was 57.7 µM. It also gave a TGI (HOP-92 NSCLC) of 56.2 µM, a TGI (HS 578T breast) of 61 µM and a TGI (HT29 colon) of 30.2 µM. It also gave a TGI (IGROV1 ovarian) of 71.1 µM, a TGI (KM12 colon) of 46.1 µM and a TGI (LOX IMVI melanoma) of 39.1 µM. The TGI (M14 melanoma) was 73.6 µM, the TGI (MALME-3M melanoma) was 39.6 µM and the TGI (MCF7 breast) was 42.3 µM. It also gave a TGI (MDA-MB-231 breast) of 36.9 µM, a TGI (MDA-MB-435) of 46 µM and a TGI (MDA-N) of 46.5 µM. For the same molecule, the TGI (MOLT-4 leukemia) was > 100 µM, the TGI (NCI-H23 lung) was 40.3 µM and the TGI (NCI-H460 lung) was 40.1 µM. The TGI (NCI-H522 lung) was 48.9 µM, the TGI (NCI/ADR-RES ovarian) was 51.8 µM and the TGI (OVCAR-3 ovarian) was 36.4 µM. For the same molecule, the TGI (OVCAR-4 ovarian) was > 100 µM, the TGI (OVCAR-5 ovarian) was 58.4 µM and the TGI (OVCAR-8 ovarian) was 48.2 µM. For the same molecule, the TGI (PC-3 prostate) was 27.1 µM, the TGI (RPMI-8226 leukemia) was > 100 µM and the TGI (RXF 393 renal) was 35.1 µM. For the same molecule, the TGI (SF-268 CNS) was 36.7 µM, the TGI (SF-295 CNS) was 37.4 µM and the TGI (SF-539 CNS) was 39 µM. For the same molecule, the TGI (SK-MEL-2 melanoma) was 41.2 µM, the TGI (SK-MEL-28 melanoma) was 36.9 µM and the TGI (SK-MEL-5 melanoma) was 42.6 µM. The TGI (SK-OV-3 ovarian) was 39.3 µM, the TGI (SN12C renal) was 37.8 µM and the TGI (SNB-19 CNS) was 49.7 µM. It also gave a TGI (SW-620 colon) of 70.1 µM, a TGI (T-47D breast) of 46.8 µM and a TGI (TK-10 renal) of 41.5 µM. For the same molecule, the TGI (U251 CNS) was 33.7 µM, the TGI (UACC-257 melanoma) was 39.4 µM and the TGI (UACC-62 melanoma) was 76 µM.
